# Literature values in patent US20150313913A1, “POSITIVE ALLOSTERIC MODULATORS OF THE GABA-A RECEPTOR IN THE TREATMENT OF AUTISM” (UNIVERSITY OF WASHINGTON THROUGH ITS CENTER FOR …, priority 2013, published 2015).
# Test system: GABA-A receptor
# Conditions: Table 1, exemplary benzodiazepines; cited from earlier work
row,Structure (SMILES),Effect at GABA-A receptor
1,CN1C(=O)CN2CCc3ccccc3C2c2cc(Cl)ccc21 (centres unmarked) [Clazolam],Agonist
2,CN1C(=O)CC(=O)N(c2ccccc2)c2cc(C(F)(F)F)ccc21 [Triflubazam],Agonist
3,O=C1Nc2ccc(Cl)nc2C(c2ccccc2Cl)=NC1O (centres unmarked) [Lopirazepam],Agonist Short- acting
4,CN1C(=O)C(O)N=C(c2ccccc2F)c2cc(Cl)ccc21 (centres unmarked) [Flutemazepam],Agonist
5,C=CCONC1=Nc2ccc(Cl)cc2C(c2ccccc2Cl)=NC1 [Uldazepam],Agonist
6,CC(C)(C)C(=O)OC1N=C(c2ccccc2)c2cc(Cl)ccc2NC1=O (centres unmarked) [Pivoxazepam],Agonist
7,O=C1C(O)N=C(c2ccccc2F)c2cc(Cl)ccc2N1CCO (centres unmarked) [Doxefazepam],Agonist
8,CCOC(=O)N1CCC(=O)N(c2ccccc2)c2cc(Cl)ccc21 [Arfendazam],Partial agonist
9,O=C1CN2CCOC2(c2ccccc2F)c2cc(Cl)ccc2N1CCO (centres unmarked) [Flutazolam],Agonist
10,Cc1nn(C)c2c1C(c1ccccc1F)=NCC(=O)N2C [Zolazepam],Agonist
11,CCCN(CCC)Cc1nc(-c2ncn3c2CN(C)C(=O)c2cc(F)ccc2-3)no1 [Ro48-6791],Agonist
12,CCOC(=O)C1N=C(c2ccccc2F)c2cc(Cl)ccc2N(C(=O)NC)C1=O (centres unmarked) [Ethyl carfluzepate],Agonist
13,C#Cc1ccc2c(c1)C(c1ccccc1F)=N[C@H](C)c1c(C(=O)OCC)ncn1-2 [SH-053-R-CH3-2′F],Agonist
14,COc1cc2c(cc1OC)C(c1cccc(Cl)c1)=NN=C(C)C2 [Girisopam],Agonist
15,CCOC(=O)C1N=C(c2ccccc2Cl)c2cc(Cl)ccc2NC1=O (centres unmarked) [Ethyl dirazepate],Agonist
16,NC(=O)c1ncn2c1CN=C(c1ccccc1Br)c1cc(F)ccc1-2 [Imidazenil],Partial agonist
17,Cc1ncc2n1-c1ccc(Cl)cc1C(c1ccccc1Cl)=NC2 [Climazolam],Agonist
18,CN1C(=O)CN=C(c2ccccc2F)c2cc(Cl)ccc21 [Fludiazepam],Agonist
19,NNC(=O)CN1C(=O)CN=C(c2ccccc2)c2cc(Br)ccc21 [Gidazepam],Agonist (Prodrug)

row,Structure (SMILES),Effect at GABA-A receptor
1,Cc1nn(C)c2c1N(c1ccccc1)C(=O)CC(=O)N2C [Zomebazam],Agonist
2,CN1C(=S)CN=C(c2ccccc2)c2cc(Cl)ccc21 [Sulazepam],Agonist
3,COc1cc2c(cc1OC)C(c1ccc(N)cc1)=NN=C(C)C2 [Nerisopam],Agonist
4,O=C(O)C1N=C(c2ccccc2)c2cc([N+](=O)[O-])ccc2NC1=O (centres unmarked) [Nitrazepate],Agonist
5,O=C1CN=C(c2ccccc2F)c2cc(Cl)ccc2N1CC(O)CO (centres unmarked) [Proflazepam],Agonist
6,O=C1CN=C(c2ccccc2)c2cc(Cl)ccc2N1CCOCC1CC1 [Iclazepam],Agonist
7,COCC1CN=C(c2ccccc2Cl)c2cc(Br)ccc2N1C (centres unmarked) [Metaclazepam],Agonist
8,COC(=O)CC[C@@H]1N=C(c2ccccn2)c2cc(Br)ccc2-n2c(C)cnc21 [Remimazolam],Agonist
9,O=C1CN2CCOC2(c2ccccc2F)c2cc(Br)ccc2N1 (centres unmarked) [Haloxazolam],Agonist
10,CCn1nc(C)c2c1C(c1ccccc1)=NCC(=O)N2 [Ripazepam],Agonist
11,Clc1ccccc1C1=NCc2nnc(C3CCCCC3)n2-c2sc(Br)cc21 [Ciclotizolam],Partial Agonist Low efficacy
12,Fc1ccccc1C1=NCCN(CC(F)(F)F)c2ccc(Cl)cc21 [Fletazepam],Agonist
13,Clc1ccc2c(n1)C(c1ccccc1Cl)=NCc1nncn1-2 [Zapizolam],Agonist
14,C[C@@H]1N=C(c2ccccc2Cl)c2cc([N+](=O)[O-])ccc2NC1=O [Meclonazepam],Agonist
15,CC1CN2CC(=O)Nc3ccc(Cl)cc3C2(c2ccccc2)O1 (centres unmarked) [Oxazolam],Agonist
16,CN1C(=O)CN=C(C2=CCCCC2)c2cc([N+](=O)[O-])ccc21 [Menitrazepam],Agonist
17,CCS(=O)(=O)CCN1C(=O)CN=C(c2ccccc2F)c2cc(Cl)ccc21 [Elfazepam],Agonist
18,CN(C)Cc1nnc2n1-c1ccc(Cl)cc1C(c1ccccc1)=NC2 [Adinazolam],Full agonist

# Same assay, conditions: Table 2, exemplary SS-PAMs; cited from earlier work
row,Structure (SMILES),Effect at GABA receptor
1,"CCn1ncnc1COc1nn2c(-c3ccccc3F)nnc2cc1C(C)(C)C [TPA-023, 7-(1,1-dimethylethyl)-6-(2-ethyl-2H-1,2,4-triazol-3-ylmethoxy)-3-(2-fluorophenyl)-1,2,4-triazolo[4,3-b]pyridazine]","Partial agonist at α2,3 subunits Antagonist at α1,5 subunits"
2,CCO/N=C(\C)c1ccc2c(c1)ncn2-c1cccc(-c2cccnc2)c1 [NS-2710],"Partial agonist α2,3 subtype selective"
3,CCCc1c(Cn2ccnc2-c2ncccc2F)ncn2nc(C)nc12 [Adipiplon],Partial agonist α3 selective
4,c1cc(-n2ccnc2)cc(-n2cnc3cc(-c4ccoc4)ccc32)c1 [NS-2664],"Partial agonist α2,3 subtype selective"
5,"Cn1c2ccc(F)cc2c2c(C(=O)N3CCCC3)cn(-c3ccccc3)c(=O)c21 [SL-651,498]","Full agonist α2,3 selective"
6,CC(C)(O)c1ccc2c(c1)ncn2-c1cccc(-c2ccccc2C#N)c1 [NS-11394],"Agonist α3,5 subtype selective"
7,Cn1ncnc1COc1nn2c(-c3ccccc3)nnc2cc1C1CCC1 [TP-13],"Partial agonist at α2,3 subunits"
8,CC(C)(O)c1ccn2c(-c3ccc(F)c(-c4ccc(F)cc4C#N)c3)cnc2c1F [TP-003],"Partial agonist α2,3,5 subtype selective binding and α3 selective efficacy"
9,Clc1ccc2c(c1)C1=NCCN1c1c(-c3noc(C4CC4)n3)ncn1-2 [U-90042],"Agonist at α1,3,6 subunits"
10,"CC#CCOC(=O)c1c(C)nc2sc3c(c2c1N)CCC(O)C3 (centres unmarked) [SB-205,384]","Agonist α3,5,6 subtype selective"
11,CC(C)CCC(=O)CC1c2ccccc2C(=O)N1c1ccc2ccc(Cl)nc2n1 (centres unmarked) [Pagoclone],"Partial agonist α2,3 selective"
12,O=C1N=C(N2CCCCC2)CN1c1ccc(Cl)cc1 [ELB-139],Partial agonist Highest affinity for α3 subtype but highest efficacy at the α1 and α2 subunits
13,CCCN(CCC)C(=O)Cc1c(-c2ccc(Cl)cc2)nc2ccc(Cl)cn12 [Alpidem],Agonist α3 subtype selective
14,Cc1cc2c(N3CCCC3)nc(N3CCCC3)nc2n1C [U-89843A],"Agonist at α1,3,6 subunits"

# Same assay, conditions: Table 4, exemplary non-BDZ GABA-A enhancers; cited from earlier work
row,Structure (SMILES),Effect at GABA receptor
1,O=c1cc2c(nn1-c1ccc(Cl)cc1)-c1ccccc1[S+]([O-])CC2 (centres unmarked) [Y-23684],Partial agonist Non- selective
2,CCc1ccc(-c2nc3ccc(C)cn3c2CN(C)C(=O)CC(C)C)cc1 [Necopidem],Agonist
3,O=c1c2cnc3ccccc3c2[nH]n1-c1ccccc1 [CGS-8216],Agonist
4,CCc1c(OC)nc2nc(-c3noc(C)n3)cn2c1C [Fasiplon],Agonist
5,COc1ccc(-n2[nH]c3c4c(ncc3c2=O)CCCCC4)cc1 [CGS-20625],Agonist
6,CCOCN1C2=C(C(=O)Nc3ccccc3F)C(=O)CCN2c2ccc(F)cc21 [RWJ-51204],Partial agonist
7,COCc1c(C(=O)OC(C)C)ncc2[nH]c3ccc(OCc4ccccc4)cc3c12 [Abecarnil],Partial agonist
8,COc1c(-c2ccc(N)cc2)nc2ccc(NCc3cccc(C)c3)nn12 [GBLD-345],Full agonist
9,Cc1ccc(S(=O)(=O)N2CCc3ccccc3[C@@H]2[C@@H]2CCC(=O)O2)cc1 [ROD-188],Agonist
10,CCc1c(OC)nc2nc(C(=O)c3ccccc3)cn2c1C [Divaplon],Partial agonist
11,O=C(c1ccccn1)c1cnn2c(-c3ccncc3)ccnc12 [Ocinaplon],Agonist
12,c1ccc(-c2cc(CCC3CCNCC3)c3ccccc3n2)cc1 [Pipequaline],Partial agonist
13,COc1nc2nc(-c3noc(C)n3)cn2c2c1CCCC2 [Taniplon],Agonist
14,CC(=O)N(C)c1cc(-c2ccnc3c(C(=O)c4cccs4)cnn23)ccc1F [Lorediplon],Agonist
15,CCC(=O)N1CCN(C(=O)O[C@H]2C3SCCSC3C(=O)N2c2ccc3ccc(Cl)nc3n2)CC1 (some centres unmarked) [Suproclone],Agonist
16,CC(C)n1c(=O)c2c(-c3noc(C4CC4)n3)ncn2c2ccccc21 [Panadiplon],Partial agonist
17,O=c1nc2ccccc2c2nc(-c3ccccc3)[nH]n12 [CGS-13767],Agonist
18,O=c1c2cnc3ccccc3c2[nH]n1-c1ccc(Cl)cc1 [CGS-9896],Agonist
19,COCc1c(C(=O)OC(C)C)ncc2[nH]c3cccc(Cc4ccc(Cl)cc4)c3c12 [Gedocarnil],Agonist
20,CCOC(=O)c1ncc2[nH]c3ccc(OCc4ccccc4)cc3c2c1COC [ZK-93423],Agonist
